Patent US20160318987A1 (MEDIMMUNE LIMITED, priority 2013, published 2016)
Where two headings read alike, the source gives them in different places. *1 amine or outer side, *2 acyl side, *3 side chain or, on linkers, in order; H or OH if unused. Where a SMILES comes first, the peptide text is derived from it. Primed or numbered codes have the meaning given here. Where no end group is shown, it is not given here. Side-chain parts run from the residue outwards. [ ]: non-standard residue; d: D form. The star is where a group is joined. ξ: configuration not given here. Palmitoyl(16-(5-tetrazolyl)) = O=C(CCCCCCCCCCCCCCCc1nnn[nH]1)*; X1 = CC(C)(c1ccccc1)[C@H](N[*:1])C(=O)[*:2]; γGlu = O=C(O)[C@H](CCC(=O)[*:2])N[*:1]; Palmitoyl = CCCCCCCCCCCCCCCC(=O)*; αMeF = C[C@](N)(Cc1ccccc1)C(=O)O; ξαMeF = CC(N)(Cc1ccccc1)C(=O)O; αMeK = C[C@](N)(CCCCN)C(=O)O; ξαMeK = CC(N)(CCCCN)C(=O)O; PEG2′ = not defined here; Aib = CC(C)(N)C(=O)O

Columns and labels:
[1] = test system: DPP-IV, Neprilysin, Chymotrypsin, Trypsin, Pepsin; test: enzyme resistance, protease panel (Table 2 description); type: in vitro ADME
Method: Peptides for evaluation were prepared to a concentration of 1.0 mg/mL solutions in either pure water, sterile saline for injection (0.9% w/v NaCl/water) or 1× PBS (Dulbecco). 100 μL (100 μg/mL peptide) of these solutions was added to 900 μL of each protease solution. Additional experiments were performed examining protein degradation during exposure to serum and gastric fluid. For serum studies, peptides were incubated with 50% female Sprague-Dawley strain rat serum (SD rat serum). For gastric fluid studies, peptides were incubated 1:1 (volume:volume), fresh rat gastric fluid.
The peptide and enzyme (or serum or gastric fluid) were co-incubated in a temperature regulated water bath at 37° C. for the duration of the experiment. During each experiment 100 μL aliquots (10 μg peptide) of the incubated peptide-enzyme mixture were withdrawn periodically, quenched by addition of an equal volume of 5% TFA (v/v) in 1:1 water/acetonitrile to arrest proteolytic activity, and analyzed by liquid chromatography-mass spectrometry (LC/MS): Agilent Polaris C8-A column (4.6×100 mm, 3 micron) using a linear binary gradient of 10-90% MeCN (0.1% TFA v/v) in water (0.1% TFA v/v) over 30 minutes at 1.5 mL min^−1 at ambient temperature. Analytes were detected by both UV absorption at 210 nm and ionization using a Waters 3100 mass detector (ESI^+ mode). New peptidic species (fragments) derived from enzymatic cleavage of peptides were analyzed post-process, and their molecular masses were used to identify the precise cleavage position (highlighting the scissile bond in each case).

hGIP-R = target: T1, hGIP-R (Homo sapiens, UniProt P48546); test: cAMP functional assay, cells expressing human GIP receptor (primary assay); type: cell-based; settings: n = 2
T1 construct: expressed in transfected cells
T1 sequence (P48546 22-466): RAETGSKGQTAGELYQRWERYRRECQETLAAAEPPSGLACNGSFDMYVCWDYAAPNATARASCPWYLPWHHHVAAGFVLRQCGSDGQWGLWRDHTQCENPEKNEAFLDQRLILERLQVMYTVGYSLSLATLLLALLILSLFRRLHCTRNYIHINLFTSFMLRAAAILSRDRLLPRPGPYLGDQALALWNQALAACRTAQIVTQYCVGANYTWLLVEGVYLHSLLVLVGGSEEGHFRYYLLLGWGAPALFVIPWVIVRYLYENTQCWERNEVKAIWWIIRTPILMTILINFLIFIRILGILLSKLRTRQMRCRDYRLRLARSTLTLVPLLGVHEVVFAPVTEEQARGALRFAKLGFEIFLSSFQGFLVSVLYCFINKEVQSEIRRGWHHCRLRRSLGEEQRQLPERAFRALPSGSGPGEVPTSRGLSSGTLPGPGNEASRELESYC

hGluc-R = target: T2, hGluc-R (Homo sapiens, UniProt P47871); test: cAMP functional assay, cells expressing human glucagon receptor (primary assay); type: cell-based; settings: n = 2
T2 construct: expressed in transfected cells

hGLP-1R = target: T3, hGLP-1R (Homo sapiens, UniProt P43220); test: cAMP functional assay, cells expressing human GLP-1 receptor (primary assay); type: cell-based; settings: n = 2
T3 construct: expressed in transfected cells
T3 sequence (P43220 24-463): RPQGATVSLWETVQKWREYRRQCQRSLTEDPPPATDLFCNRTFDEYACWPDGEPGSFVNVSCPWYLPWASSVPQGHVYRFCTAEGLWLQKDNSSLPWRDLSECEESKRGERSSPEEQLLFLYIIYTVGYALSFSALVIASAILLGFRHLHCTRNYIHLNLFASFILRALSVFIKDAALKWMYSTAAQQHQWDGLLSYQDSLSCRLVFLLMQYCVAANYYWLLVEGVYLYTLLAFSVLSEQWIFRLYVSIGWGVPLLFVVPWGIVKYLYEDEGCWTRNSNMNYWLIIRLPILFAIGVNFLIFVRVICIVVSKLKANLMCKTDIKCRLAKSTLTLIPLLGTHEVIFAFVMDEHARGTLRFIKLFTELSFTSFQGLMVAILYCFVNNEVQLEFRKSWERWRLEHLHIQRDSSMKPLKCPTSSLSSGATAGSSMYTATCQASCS

T2 sequence (P47871 26-477): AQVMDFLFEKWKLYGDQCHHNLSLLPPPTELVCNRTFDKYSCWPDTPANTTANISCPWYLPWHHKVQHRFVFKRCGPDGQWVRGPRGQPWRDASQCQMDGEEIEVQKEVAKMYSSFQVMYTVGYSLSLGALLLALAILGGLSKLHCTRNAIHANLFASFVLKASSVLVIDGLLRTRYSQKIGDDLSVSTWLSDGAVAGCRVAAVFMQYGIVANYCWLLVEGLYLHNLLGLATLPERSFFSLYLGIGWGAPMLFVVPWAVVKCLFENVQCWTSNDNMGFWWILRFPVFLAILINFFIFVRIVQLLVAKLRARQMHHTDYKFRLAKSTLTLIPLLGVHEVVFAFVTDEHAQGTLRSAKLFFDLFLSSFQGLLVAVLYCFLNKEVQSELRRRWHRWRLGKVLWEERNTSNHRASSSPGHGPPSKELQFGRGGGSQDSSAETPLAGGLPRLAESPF

Row | EC50 (hGIP-R) [nM] | EC50 (hGluc-R) [nM] | EC50 (hGLP-1R) [nM] | EC50 (hGLP-1R; read-out: Primary assay EC50 (n = 2) hGLP-1R) [nM] | Compound | enzyme resistance (DPP-IV, Neprilysin, Chymotrypsin, Trypsin, Pepsin) [1]
1 |  |  |  |  | CCCCCCCCCCCCCCCC(=O)N[C@@H](CCC(=O)NCCCC[C@H](NC(=O)CNC(=O)CNC(=O)C(C)(CCCCN)NC(=O)[C@@H](NC(=O)[C@@H](NC(=O)C(C)(Cc1ccccc1)NC(=O)[C@H](C)NC(=O)[C@@H](NC(=O)C(C)(Cc1ccccc1)NC(=O)[C@H](CCC(=O)O)NC(=O)C(C)(CCCCN)NC(=O)[C@H](C)NC(=O)[C@H](C)NC(=O)[C@H](CCC(N)=O)NC(=O)CNC(=O)[C@H](CCC(=O)O)NC(=O)[C@H](CC(C)C)NC(=O)C(C)(Cc1ccccc1)NC(=O)[C@H](CO)NC(=O)[C@H](CO)NC(=O)[C@@H](NC(=O)[C@H](CC(=O)O)NC(=O)[C@H](CO)NC(=O)[C@@H](NC(=O)C(C)(Cc1ccccc1)NC(=O)[C@H](CO)NC(=O)CNC(=O)[C@H](CCC(=O)O)NC(=O)C(C)(C)NC(=O)[C@@H](N)Cc1c[nH]cn1)[C@@H](C)O)C(C)C)[C@@H](C)CC)C(C)C)C(C)C)C(N)=O)C(=O)O (stereo partly drawn) [SEQ ID NO: 54, H-(Aib)^2-EG-(S)^5-(α-MeF)^6-TSDV^10 SS-(α-MeF)^13-LE^15 GQAA-(α-MeK)^20 E-(α-MeF)^22-IA-(α-MeF)^25-(V)^26-V-(α-MeK)^28-G-(G)^30-K(Ε-γ-E-Palm)] (H-H[Aib]EGS[ξαMeF]TSDVSS[ξαMeF]LEGQAA[ξαMeK]E[ξαMeF]IA[ξαMeF]VV[ξαMeK]GGK([γGlu-Palmitoyl])-NH2) | Excellent enzyme resistance
2 | 89.8 | 89.8 | 0.218 |  | CCCCCCCCCCCCCCCC(=O)N[C@@H](CCC(=O)NCCCC[C@H](NC(=O)CNC(=O)CNC(=O)[C@](C)(CCCCN)NC(=O)[C@@H](NC(=O)[C@@H](NC(=O)[C@](C)(Cc1ccccc1)NC(=O)[C@H](C)NC(=O)[C@@H](NC(=O)[C@](C)(Cc1ccccc1)NC(=O)[C@H](CCC(=O)O)NC(=O)[C@](C)(CCCCN)NC(=O)[C@H](C)NC(=O)[C@H](C)NC(=O)[C@H](CCC(=O)O)NC(=O)CNC(=O)[C@H](CCC(=O)O)NC(=O)[C@H](CC(C)C)NC(=O)[C@](C)(Cc1ccccc1)NC(=O)[C@H](CO)NC(=O)[C@H](CO)NC(=O)[C@@H](NC(=O)[C@H](CC(=O)O)NC(=O)[C@H](CO)NC(=O)[C@@H](NC(=O)[C@](C)(Cc1ccccc1)NC(=O)[C@H](CO)NC(=O)CNC(=O)[C@H](CCC(=O)O)NC(=O)C(C)(C)NC(=O)[C@@H](N)Cc1c[nH]cn1)[C@@H](C)O)C(C)C)[C@@H](C)CC)C(C)C)C(C)C)C(N)=O)C(=O)O [SEQ ID NO: 59, H-(Aib)^2-EG-(S)^5-(α-MeF)^6-TSDV^10 SS-(α-MeF)^13-LE^15 G-(E)^17-AA-(α-MeK)^20 E-(α-MeF)^22-IA-(α-MeF)^25-(V)^26-V-(α-MeK)^28-G-(G)^30-K(Ε-γ-E-Palm)] (H-H[Aib]EGS[αMeF]TSDVSS[αMeF]LEGEAA[αMeK]E[αMeF]IA[αMeF]VV[αMeK]GGK([γGlu-Palmitoyl])-NH2) | Excellent enzyme resistance
3 | 104 | 66.3 | 0.0212 |  | CC[C@H](C)[C@H](NC(=O)[C@](C)(Cc1ccccc1)NC(=O)[C@H](CCC(=O)O)NC(=O)[C@](C)(CCCCN)NC(=O)[C@H](C)NC(=O)[C@H](C)NC(=O)[C@H](CCC(=O)O)NC(=O)CNC(=O)[C@H](CCC(=O)O)NC(=O)[C@H](CC(C)C)NC(=O)[C@](C)(Cc1ccccc1)NC(=O)[C@H](CO)NC(=O)[C@H](CO)NC(=O)[C@@H](NC(=O)[C@H](CC(=O)O)NC(=O)[C@H](CO)NC(=O)[C@@H](NC(=O)[C@](C)(Cc1ccccc1)NC(=O)[C@H](CO)NC(=O)CNC(=O)[C@H](CCC(=O)O)NC(=O)C(C)(C)NC(=O)[C@@H](N)Cc1c[nH]cn1)[C@@H](C)O)C(C)C)C(=O)N[C@@H](C)C(=O)N[C@@](C)(Cc1ccccc1)C(=O)N[C@H](C(=O)N[C@H](C(=O)N[C@@](C)(CCCCN)C(=O)NCC(=O)NCC(N)=O)C(C)C)C(C)C [SEQ ID NO: 60, H-(Aib)^2-EG-(S)^5-(α-MeF)^6-TSDV^10 SS-(α-MeF)^13-LE^15 G-(E)^17-AA-(α-MeK)^20 E-(α-MeF)^22-IA-(α-MeF)^25-(V)^26-V-(α-MeK)^28-G-(G)^30] | Excellent enzyme resistance
4 | 98.9 | 98.9 | 98.9 |  | CC[C@H](C)[C@H](NC(=O)[C@@H](NC(=O)[C@H](CCC(=O)O)NC(=O)[C@H](CCCCN)NC(=O)[C@H](C)NC(=O)[C@H](C)NC(=O)[C@H](CCC(N)=O)NC(=O)CNC(=O)[C@H](CCC(=O)O)NC(=O)[C@H](CC(C)C)NC(=O)[C@@H](NC(=O)[C@H](CO)NC(=O)[C@H](CO)NC(=O)[C@@H](NC(=O)[C@H](CC(=O)O)NC(=O)[C@H](CO)NC(=O)[C@@H](NC(=O)[C@@H](NC(=O)[C@@H](NC(=O)CNC(=O)[C@H](CCC(=O)O)NC(=O)C(C)(C)NC(=O)[C@@H](N)Cc1c[nH]cn1)[C@@H](C)O)C(C)(C)c1ccccc1)[C@@H](C)O)C(C)C)C(C)(C)c1ccccc1)C(C)(C)c1ccccc1)C(=O)N[C@@H](C)C(=O)N[C@H](C(=O)N[C@@H](CC(C)C)C(=O)N[C@H](C(=O)N[C@@H](CCCCN)C(=O)NCC(=O)N[C@@H](CCCNC(=N)N)C(N)=O)C(C)C)C(C)(C)c1ccccc1 [SEQ ID NO: 62, H-(Aib)^2-EGT^5-(β, β-di-Me-Phe)^6-TSDV^10 SS-(β, β-di-Me-Phe)^13-LE^15 GQAAK^20 E-(β, β-di-Me-Phe)^22-IA-(β,β-di-Me-Phe)^25 LVKGR^30] (H-H[Aib]EGT[X1]TSDVSS[X1]LEGQAAKE[X1]IA[X1]LVKGR-NH2) | 
5 |  |  |  |  | H-(Aib)^2-EG-(S)^5-(α-MeF)^6-TSDV^10 SS-(α-MeF)^13-LE^15 GQAA-(α-MeK)^20 E-(α-MeF)22^-IA-(α-MeF)^25-(V)^26-V-(α-MeK)^28-G-(G)^30-K(Ε-γ-E-Tetrazolylpalm) (H[Aib]EGS[αMeF]TSDVSS[αMeF]LEGQAA[αMeK]E[αMeF]IA[αMeF]VV[αMeK]GGK([γGlu-Palmitoyl(16-(5-tetrazolyl))])) [SEQ ID NO: 55] | Excellent enzyme resistance
6 |  |  |  | 0.0451 | H-(Aib)^2-EG-(S)^5-(α-MeF)^6-TSDV^10 SS-(α-MeF)^13-LE^15 GQAA-(α-MeK)^20 E-(α-MeF)^22-IA-(α-MeF)^25-(V)^26-V-(α-MeK)^28-G-(G)^30-K(Ε-Tetrazolylpalm) (H[Aib]EGS[αMeF]TSDVSS[αMeF]LEGQAA[αMeK]E[αMeF]IA[αMeF]VV[αMeK]GGK(Palmitoyl(16-(5-tetrazolyl))); not fully specified (C-terminus); printed as H-(Aib)^2-EG-(S)^5-(α-MeF)^6-TSDV^10 SS-(α-MeF)^13-LE^15 GQAA-(α-MeK)^20 E-(α-MeF)^22-IA-(α-MeF)^25-(V)^26-V-(α-MeK)^28-G-(G)^30-K(Ε-Tetrazolylpalm)) [SEQ ID NO: 53] | Excellent enzyme resistance
7 |  |  |  |  | H-(Aib)^2-EG-(S)^5-(α-MeF)^6-TSDV^10 SS-(α-MeF)^13-LE^15 GQAA-(α-MeK)^20 E-(α-MeF)^22-IA-(α-MeF)^25-(V)^26-V-(α-MeK)^28-G-(G)^30-K(Ε-γ-E-(PEG)^2-Tetrazolylpalm) (H[Aib]EGS[αMeF]TSDVSS[αMeF]LEGQAA[αMeK]E[αMeF]IA[αMeF]VV[αMeK]GGK([γGlu-PEG2′-Palmitoyl(16-(5-tetrazolyl))]); not fully specified; printed as H-(Aib)^2-EG-(S)^5-(α-MeF)^6-TSDV^10 SS-(α-MeF)^13-LE^15 GQAA-(α-MeK)^20 E-(α-MeF)^22-IA-(α-MeF)^25-(V)^26-V-(α-MeK)^28-G-(G)^30-K(Ε-γ-E-(PEG)^2-Tetrazolylpalm)) [SEQ ID NO: 56] | Excellent enzyme resistance
